The results in this text go back to patent publication US20140155429A1, “Treatment of Cognitive Disorders with Certain Alpha-7 Nicotinic Acid Receptor Agonists in Combination with Nicotine” (EnVivo Pharmaceuticals, Inc., priority 2011, published 2014).

The nature of assay [1]: Memory improvement at a subclinical dose in combination with an acetylcholinesterase inhibitor. The class given is in vivo. The following applies: in combination with an acetylcholinesterase inhibitor also at a subclinical dose. As for the experimental part:
Thus, a subject can experience a benefit (e.g., improved memory or cognition) from a combination of drugs each of which is administered at very low, side-effect reducing or side-effect avoiding dose. Moreover, the combination of drugs may provide a benefit for a wider range or subjects and/or over a longer period of treatment.

Another assay deals with humans. Put plainly: Procognitive effects in humans at low doses. To be noted: unexpectedly low doses. It is filed as in vivo, human. From the text: Thus, (R)-7-chloro-N-(quinuclidin-3-yl)benzo[b]thiophene-2-carboxamide and pharmaceutically acceptable salts thereof can be used at unexpectedly low doses improve cognition in individuals suffering from impaired cognition and in healthy individuals (i.e., individuals that are not suffering from an apparent cognitive deficit). For example, it can be used to improve cognition in subjects suffering from Alzheimer's disease, schizophrenia and other disorders such as other neurodegenerative diseases (e.g., Huntington's Disease or Parkinson's Disease) and attention deficit disorder. It can be used to treat certain disorders, e.g., Alzheimer's disease, schizophrenia (e.g., paranoid type, disorganized type, catatonic type, and undifferentiated type), schizophreniform disorder, schizoaffective disorder, delusional disorder, positive symptoms of schizophrenia, negative symptoms of schizophrenia at a daily dose of 3 mg, 2.70 mg, 2.50 mg, 2.25 mg, 2 mg, 1.75 mg, 1.50 mg, 1.25 mg, 1 mg, 0.7, 0.5, 0.3 mg or even 0.1 mg. The compound can be used to improve one or more aspects of cognition, e.g., one or more of: executive function, memory (e.g., working memory), social cognition, visual learning, verbal learning and speed of processing. […]

In another assay the test system is schizophrenia subjects. Put plainly: Sensory electrophysiological responses (P50 gating, MMN, P300, N100) in schizophrenia subjects. The class given is in vivo, human. The following applies: in combination with a tobacco-free nicotine dosage form, greater than compound alone, expected at a daily dose as low as 0.3 mg. How it is done: These effects are expected at a daily dose as low as 0.3 mg of (R)-7-chloro-N-(quinuclidin-3-yl)benzo[b]thiophene-2-carboxamide hydrochloride.
Impairment of the ability of central nervous system to inhibit irrelevant sensory information has long been used as a model for understanding the deficits of attention seen in schizophrenic subjects. Two approaches to the measurement of this ability have commonly been employed (see (Heinrichs, 2004; Potter et al., 2006; Turetsky et al., 2007; Umbricht and Krljes, 2005) for reviews and meta-analyses): (1) the sensory gating paradigm in which the presentation of one stimulus normally suppresses the response elicited by a stimulus which rapidly follows it. […] (2) the oddball or orienting paradigm in which a rare or unexpected event elicits a diminished response in schizophrenic subjects because attentional resources are inappropriately focused on less salient aspects of the environment.
Two responses are commonly used assess brain activity: (1) the auditory P50 response elicited by the second member of a pair of clicks; and (2) the mismatch negativity (MMN) or N2 response evoked by a rarely occurring pure tone of no instructed relevance to the subject. Abnormalities in both P50 gating and the MMN have been reported in schizophrenic subjects. […]

`O=C(N[C@H]1CN2CCC1CC2)c1cc2cccc(Cl)c2s1` [(R)-7-chloro-N-(quinuclidin-3-yl)benzo[b]thiophene-2-carboxamide]: in assay [1], the memory result is listed as “memory can be improved”. Moreover, the procognitive effects entry in the assay with humans is on record as “can have procognitive effects in humans at unexpectedly low doses”.
As for `Cl.O=C(N[C@H]1CN2CCC1CC2)c1cc2cccc(Cl)c2s1` [(R)-7-chloro-N-(quinuclidin-3-yl)benzo[b]thiophene-2-carboxamide hydrochloride], in the assay on schizophrenia subjects, the “sensory electrophysiological responses which correlate with improved cognitive and functional performance” value is on record as “can improve sensory electrophysiological responses”.
